The values below come from patent US7253177B2, “Synthesis and antimalarial activity of pyrrolo[3,2-f]quinazoline-1,3-diamine derivatives” (United States of America as Represented by the Secretary of …, priority 2004, dated 2007).

The structures appear in SMILES notation. In brackets after ≈: the same amount, converted by molar mass.

Assay [1] relates to Plasmodium falciparum TM91C235 (Southeast Asia Isolates). Kind of assay: In vitro antimalarial study, [3H]hypoxanthine uptake, TM91C235 clone. Type of assay: cell-based. As to the method: (§1) B. Antimalarial Activities: (a). In Vitro Antimalarial Studies. The in vitro assays were conducted by using a modification of the semiautomated microdilution technique of Desjardins et al and Chulay et al.. Four P. falciparum malaria parasite clones, from CDC Indochina III (W-2), CDC Sierra Leone I (D-6), Southeast Asia Isolates (TM91C235) and RCS (Isolates from Brazil) were utilized in susceptibility testing. They were derived by direct visualization and micromanipulation from patient isolates. The W-2 clone is susceptible to mefloquine but resistant to chloroquine, sulfadoxine, pyrimethamine, and quinine, whereas the D-6 clone is naturally resistant to mefloquine but susceptible to chloroquine, sulfadoxine, pyrimethamine and quinine. Test compounds were initially dissolved in DMSO and diluted 400 fold in RPMI 1640 culture medium supplemented with 25 mM Hepes, 32 mM NaHCO3 and 10% Albumax I (Gibco BRL, Grand Island, N.Y.). These solutions were subsequently serially diluted two-fold with a Biomek 1000 (Beckman, Fullerton, Calif.) over 11 different concentrations. The parasites were exposed to serial dilutions of each compound for 48 hrs and incubated at 37° C. with 5% O2, 5% CO2 and 90% N2 prior to the addition of [^3H]hypoxanthine. After a further incubation of 18 hrs, parasite DNA was harvested from each microtiter well using Packard Filtermate 196 Harvester (Meriden, Conn.) onto glass filters. Uptake of [^3H]hypoxanthine was measured with a Packard Topcount Scintillation. Concentration-response data were analyzed by a non-linear regression logistic dose response model and the IC50 values (50% inhibitory concentrations) for each compound were calculated. (Table 3). (b). In Vivo Antimalarial Studies against P. berghei in mice: The in vivo efficacy of the artelinic acid analogs were determined in a modified Thompson test. This test measures the survivability of mice and parasitemia clearance following administration of drug on days 3-5 post infection. In brief, 5×10^6 P. berghei-infected erythrocytes (KBG-173 strain) were inoculated intraperitoneally to female mice that weighed 24-30 g. By day three post-infection, parasitemia ranged from 1.0-3.7%. Each drug, dissolved in 5% sodium bicarbonate, was administered PO twice daily from day 3-5 post-infection. Total doses for each drug ranged from 1.5-384 mg/kg with 8 mice included in each dosage group. The percent suppression of parasitemia in the treated mice compared to the untreated controls was determined for each test compound; the SD-50 (fifty percent suppression dose) and SD-90 were determined from a non-linear regression logistic dose response fit at day 6 parasitemia data. Survival of mice to day 60 post-infection was considered a cure (C). Compounds were considered active (A) when the survival time of the treated mice was greater than twice the control mice, i.e., 12-14 day (Table 4-5). (c). Sporozoite Induced Test Each compound is ground with a mortar & pestle and suspended in 0.5% hydroxyethylcellulose—0.1% Tween 80 for compounds to be administered PO and those given SC are suspended in peanut oil. Each compound is prepared at 3 different dose levels as requested by WRAIR. Compounds are administered either PO or SC to mice once 4 hr before inoculation of sporozoites. Four-week-old male CD-1 mice, purchased from Charles River and weighing 16-17 g, are placed 5 per cage and allowed to acclimate for 4 days before being treated and then inoculated with sporozoites. They are fed food and water ad-lib and maintained at 76° F. with 12 hr light and 12 hr darkness. The cages and water bottles are changed biweekly. The mice are weighed on Days 0, 3 and 6 then biweekly when blood films are taken. Plasmodium yoelii (17×) is used to infect mice that will be used to infect the mosquitoes. Mice are given a single dose of test compound 4 hr before being inoculated intraperitoneally with 2.5×10^5 sporozoites of Plasmodium yoelii on Day 0. […]

In assay [2] the test system is Plasmodium falciparum W-2 clone (CDC Indochina III). Kind of assay: In vitro antimalarial study, [3H]hypoxanthine uptake, W-2 clone. The format is cell-based. Here is the method:
as §1

As to `CCOC(=O)Nc1nc(NC(=O)OCC)c2c(ccc3c2ccn3Cc2ccccc2C(F)(F)F)n1` [Compound 2b], the “IC50 TM91C235” value in assay [1] (P. falciparum TM91C235 clone) is listed as above 250 ng/mL. Further, in assay [2] (P. falciparum W-2 clone), the “IC50 W-2” value is 127.80 ng/mL (≈ 255 nM).

As a reminder, the IC50 is the midpoint of a concentration-inhibition curve. As for `CC(=O)N(C(C)=O)c1nc(N(C(C)=O)C(C)=O)c2c(ccc3c2ccn3Cc2ccccc2C(F)(F)F)n1` [Compound 3e, 1,3-Bis(diacetylamino)-7-(2-trifluoromethyl)benzyl-7H-pyrrolo[3,2-f]quinazoline], the IC50 was found to be 0.0845 ng/mL (≈ 0.161 nM) in assay [1] (Plasmodium falciparum, read-out: IC50 TM91C235) and 0.0752 ng/mL (≈ 0.143 nM) in assay [2] (Plasmodium falciparum, read-out: IC50 W-2).
